Reference: patent publication US20260274851A1, “MODULATORS OF TRPML, THEIR COMPOSITIONS AND METHODS OF USE” (Caraway Therapeutics, Inc., priority 2023, published 2026)

Assays:
[1] = system: TRPMLs; conditions: high concentrations needed; background statement; cited from earlier work
[2] = biological target: Human TRPML1 (Homo sapiens, UniProt Q9GZU1); assay: Fluorescent TRPML1 assay (Fluo4 calcium fluorescence, HEK-293 Trex cells); type: cell-based; conditions: HEK-293 Trex cells expressing surface-directed hTRPML1, Fluo4 fluorescence
Sequence of Human TRPML1 (Q9GZU1 whole entry L15A/L16A/L577A/L578A, form open): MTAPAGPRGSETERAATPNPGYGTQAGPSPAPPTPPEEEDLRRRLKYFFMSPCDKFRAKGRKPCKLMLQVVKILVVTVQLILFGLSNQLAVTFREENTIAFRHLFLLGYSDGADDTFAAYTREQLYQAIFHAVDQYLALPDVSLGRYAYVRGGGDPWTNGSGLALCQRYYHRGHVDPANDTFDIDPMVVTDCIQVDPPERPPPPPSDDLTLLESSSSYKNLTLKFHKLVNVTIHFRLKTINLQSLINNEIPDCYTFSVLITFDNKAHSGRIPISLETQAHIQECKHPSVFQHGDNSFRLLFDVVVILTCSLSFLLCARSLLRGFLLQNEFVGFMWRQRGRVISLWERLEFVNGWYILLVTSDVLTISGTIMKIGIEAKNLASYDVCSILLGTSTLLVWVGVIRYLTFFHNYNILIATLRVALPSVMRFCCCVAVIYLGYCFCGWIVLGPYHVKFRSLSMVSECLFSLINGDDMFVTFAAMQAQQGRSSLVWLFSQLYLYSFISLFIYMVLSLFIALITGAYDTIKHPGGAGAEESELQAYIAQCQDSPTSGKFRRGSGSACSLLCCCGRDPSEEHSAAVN
Method: (§1) HEK-293 Trex cells were stably transfected with a construct consisting of the human coding sequence for TRPML1 cloned into the tet-inducible plasmid pCDNA5 T/O. Mutations were introduced into the TRPML1 sequence to facilitate expression on the cell surface (Silvia Vergarajauregui. Rosa Puertollano Traffic. 2006 March: 7(3): 337-353). Briefly, the cells are cultured in 150 mm round tissue culture dishes containing 20 mL of media. The day before the assay the cells are rinsed with DPBS—Ca —Mg and then treated briefly with Trypsin-EDTA. The Trypsin-EDTA is diluted with growth media, and cells are counted. 38×10^6 cells are re-plated into 150 mm round tissue culture dishes in media containing 0.5 g/mL doxycycline to induce expression of hTRPML1.
(§2) The day of the experiment cells are lifted from the plates as above and collected by centrifugation. The cells are then suspended in dye loading buffer consisting of Ringer's solution supplemented with 0.1% Pluronic Acid and 1 micromolar Fluo4-AM dye. Cells are loaded for ~60 minutes in the dark with occasional mixing. The cells are collected by centrifugation, the loading media aspirated, and the cells resuspended in 25 mL Ringer's solution and incubated ~60 minutes in the dark. The cells are again collected by centrifugation, rinsed in Ringer's Solution and resuspended to 0.2×10^6 cells/mL in modified Ringer's solution containing 10 mM calcium.
(§3) Compounds are dissolved to a concentration of 10 millimolar with DMSO. Compound plates are created by dispensing compounds into 384 well black wall clear bottom plates (Greiner 781091). Positive and negative controls are included on each plate. Typically, different amounts of each compound are tested ranging from 100 nanoMoles (20 micromolar final concentration) decreasing in half-log steps to 31 picoMoles (6 nanomolar final concentration). Each concentration is typically tested in triplicate.
(§4) 50 microliters of dye-loaded cells are dispensed into each well of the compound assay plate created above. The fluorescence in each well is then determined with an excitation wavelength of 480 nm and an emission wavelength of 540 nm using either a Molecular Devices SpectraMax multimode plate reader or a Hamamatsu FDSS/uCell plate imager.
(§5) The resulting fluorescence for each well is exported as an ascii file and loaded into our LIMS for analysis. The percent activity of each compound at each concentration is determined by comparison to the positive and negative control wells included in each plate.
(§6) EC50 values were calculated using a non-linear regression of Prism. In the table, “A” indicates an EC50 of less than 100 nM, “B” indicates an EC50 range from 100 nM to 500 nM; “C” indicates an EC50 range from 500 nM to 2 μM; and “D” indicates an EC50 greater than 2 μM.

[3] = biological target: T1, Human TRPML3 (Homo sapiens, UniProt Q8TDD5); assay: Fluorescent TRPML3 assay (as for TRPML1); type: cell-based; conditions: as TRPML1 assay with TRPML3 subtype
T1 construct: expressed in transfected cells
T1 sequence (Q8TDD5 1-553): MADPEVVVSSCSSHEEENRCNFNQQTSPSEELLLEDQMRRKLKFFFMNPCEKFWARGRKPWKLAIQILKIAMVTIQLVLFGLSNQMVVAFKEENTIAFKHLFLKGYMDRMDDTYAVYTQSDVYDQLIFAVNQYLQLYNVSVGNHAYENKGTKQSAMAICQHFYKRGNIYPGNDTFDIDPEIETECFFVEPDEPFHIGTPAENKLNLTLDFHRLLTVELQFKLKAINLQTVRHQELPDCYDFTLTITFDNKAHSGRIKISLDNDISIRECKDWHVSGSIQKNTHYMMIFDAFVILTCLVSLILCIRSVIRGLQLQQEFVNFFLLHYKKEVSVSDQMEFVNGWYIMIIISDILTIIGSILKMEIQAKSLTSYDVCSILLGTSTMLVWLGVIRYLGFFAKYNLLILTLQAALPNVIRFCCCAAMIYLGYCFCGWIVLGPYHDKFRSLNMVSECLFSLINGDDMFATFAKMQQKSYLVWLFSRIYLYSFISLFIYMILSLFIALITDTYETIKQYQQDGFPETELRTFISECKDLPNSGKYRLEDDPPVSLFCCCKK
Method: as §1, §2, §3, §4, §5
Assays for TRPML2 and TRPML3 were performed as above for TRPML1, by substituting the appropriate TRPML2 or TRPML3 subtype for the TRPML1.
as §6

[4] = biological target: T2, Human TRPML2 (Homo sapiens, UniProt Q8IZK6); assay: Fluorescent TRPML2 assay (as for TRPML1); type: cell-based; conditions: as TRPML1 assay with TRPML2 subtype
T2 construct: expressed in transfected cells
T2 sequence (Q8IZK6 1-566): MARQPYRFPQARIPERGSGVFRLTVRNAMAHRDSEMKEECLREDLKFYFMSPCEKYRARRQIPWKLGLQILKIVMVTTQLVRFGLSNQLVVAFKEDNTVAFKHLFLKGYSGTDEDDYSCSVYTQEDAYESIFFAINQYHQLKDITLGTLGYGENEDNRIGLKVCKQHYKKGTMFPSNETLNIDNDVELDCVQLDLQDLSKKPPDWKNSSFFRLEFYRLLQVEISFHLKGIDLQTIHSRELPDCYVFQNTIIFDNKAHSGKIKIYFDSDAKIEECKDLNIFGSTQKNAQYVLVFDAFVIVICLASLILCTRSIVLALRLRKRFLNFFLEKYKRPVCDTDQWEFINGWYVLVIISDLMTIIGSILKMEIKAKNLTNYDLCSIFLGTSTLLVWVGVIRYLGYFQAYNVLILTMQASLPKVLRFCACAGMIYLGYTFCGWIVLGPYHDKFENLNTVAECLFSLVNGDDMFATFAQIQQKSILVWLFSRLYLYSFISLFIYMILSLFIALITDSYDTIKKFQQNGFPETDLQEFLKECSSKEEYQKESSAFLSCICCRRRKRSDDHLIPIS
Method: as §1, with “38×10^6 cells are re-plated into 150 mm round tissue culture dishes in media containing 0.5 g/mL doxycycline to induce expression of hTRPML1.” left out
as §4
The resulting fluorescence for each well is exported as an ascii file and loaded into our LIMS for analysis. The percent activity of each compound at each concentration is determined by comparison to the positive and negative control wells included in each plate. […]
EC50 values were calculated using a non-linear regression of Prism. […]

Row | Compound | Concentration needed to effectively activate TRPMLs [1] | EC50 [2] [nM] | EC50 [3] [nM] | EC50 [4] [nM]
1 | CC1CC(C)(C)N(C(=O)CN2C(=O)c3ccccc3C2=O)c2ccccc21 (stereo not drawn) [ML-SA1] | ~ 10 μM |  |  | 
2 | C[C@@H]1CN(c2ncnc3c2c(-c2ccccc2F)cn3-c2cccc(Cl)c2)[C@@H](C)CN1C(=O)C(C)(C)O [Compound 105, 1-((2R,5S)-4-(7-(3-chlorophenyl)-5-(2-fluorophenyl)-7H-pyrrolo[2,3-d]pyrimidin-4-yl)-2,5-dimethylpiperazin-1-yl)-2-hydroxy-2-methylpropan-1-one] |  | 100 to 500 | 500 to 2000 | 
3 | C[C@@H]1CN(c2ncnc3c2c(-c2ccccc2F)cn3-c2cc(F)cc(F)c2)[C@@H](C)CN1C(=O)C(C)(C)O [Compound 104, 1-((2R,5S)-4-(7-(3,5-difluorophenyl)-5-(2-fluorophenyl)-7H-pyrrolo[2,3-d]pyrimidin-4-yl)-2,5-dimethylpiperazin-1-yl)-2-hydroxy-2-methylpropan-1-one] |  | 500 to 2000 | > 2000 | 
4 | C[C@@H]1CN(c2ncnc3c2c(-c2ccccc2)cn3-c2cccc(C#N)c2)[C@@H](C)CN1C(=O)C(C)(C)O [Compound 101, 3-(4-((2S,5R)-4-(2-hydroxy-2-methylpropanoyl)-2,5-dimethylpiperazin-1-yl)-5-phenyl-7H-pyrrolo[2,3-d]pyrimidin-7-yl)benzonitrile] |  | 100 to 500 | > 2000 | 
5 | C[C@@H]1CN(c2ncnc3c2c(-c2ccccc2F)cn3-c2cccc(C#N)c2)[C@@H](C)CN1C(=O)C(C)(C)O [Compound 102, 3-(5-(2-fluorophenyl)-4-((25,5R)-4-(2-hydroxy-2-methylpropanoyl)-2,5-dimethylpiperazin-1-yl)-7H-pyrrolo[2,3-d]pyrimidin-7-yl)benzonitrile] |  | 100 to 500 | > 2000 | 
6 | COC(C)(C)C(=O)N1C[C@H](C)N(c2ncnc3c2c(-c2ccccc2F)cn3-c2cccc(F)c2)C[C@H]1C [Compound 103, 1-((2R,5S)-4-(5-(2-fluorophenyl)-7-(3-fluorophenyl)-7H-pyrrolo[2,3-d]pyrimidin-4-yl)-2,5-dimethylpiperazin-1-yl)-2-methoxy-2-methylpropan-1-one] |  | < 100 | < 100 | 100 to 500
